Patent US20060252698A1, “Compounds for inhibiting cathepsin activity” (priority 2005, published 2006)
pKi: −log10 of the molar value. Starred links: 1 amine or outer side, 2 acyl side, 3 side chain; linkers in the order of their positions; H or OH if unused. Non-standard residues stand in square brackets, D forms with d. Residues, ends and D or L forms follow the SMILES beside them. *: point of attachment. Pro(3S,4R-methano) = O=C(O)[C@H]1NC[C@@H]2C[C@@H]21; X3 = C=CCCC(N[*:1])C(=O)C(=O)[*:2]; Chg = N[C@H](C(=O)O)C1CCCCC1; Phg = N[C@H](C(=O)O)c1ccccc1; Boc = CC(C)(C)OC(=O)*

Molecular target: T1, Human Liver Cathepsin L (Homo sapiens, UniProt P07711)
T1 construct: purchased Calbiochem 219402
Experiment: Cathepsin L inhibition assay (kinetic, Z-Phe-Arg-pNA substrate)
Assay type: biochemical
Settings: Z-Phe-Arg-pNA 120 μM, enzyme 12 nM, pH 5.5, read at 410 nm
Description: Cathepsin Assay Protocols:
• 1. 96-well Round or V-bottom microplates for dilutions • 2. 96-well COSTAR UV microplates for assay (COSTAR cat.#3635) • 3. Bio-Spin 6 Chromatography Columns (BIO-RAD cat.#732-6002). • 4. 12-75 mm test tubes • 5. Falcon 50 ml tubes • 6. Falcon 14 ml tubes • 7. 1.5 ml eppendorf tube • 8. ≦10 ml buffer reservoir Reagents: • 1. Enzyme: Cathepsin G, M.W.23,500, 10 μM stock. • 2. Substrate:Suc-Ala-Ala-Pro-Phe-pNA, M.W. 624.65, prep. 100 mM [62.465 mg/ml] stock. • 3. Buffer: [50 mM HEPES, 500 mM NaCl, 5 μM EDTA, pH 7.14], 5 μM DTT Instrument Settings: SpectraMax Plus • 1. Kinetic assay reading@405 nm • 2. Read interval: 30 seconds • 3. Time: 1 hour • 4. OD Min: −0.001 • 5. OD Max: 0.5 • 6. Data Mode: Absorbance • 7. e405=194.078 μM/O.D. Procedure: • 1. Add 73 μl of buffer to all wells. • 2. Add […] of buffer to (−E) controls. • 3. Add 7 μl of sample and/or DMSO for controls to appropriate wells. • 4. Prep. substrate: 100 mM (62.465 mg/ml) stock in 100% DMSO. • 5. Dilute 1:20 in buffer. 75 μl in 1.425 ml. 5 mM final. • 6. Add 20 μl of 5 mM substrate to all wells. 500 μM final. • 7. Dilute enzyme (1:50) in buffer; Add 120 μl to 5,880 μl buffer. 2×[200 nM] final. • 8. Add 100 μl of 2× [200 nM] enzyme to assigned wells, except (−E) controls. [100 nM] final. • 11. Vortex 20 seconds. Read@ 405 nM every 30 seconds for 1 hour on SpectraMax Plus • Endpoint assay reading plate@ 600 nM. Used for the detection of precipitation. Cathepsin H: Materials: • 1. 96-well Round or V-bottom microplates for dilutions • 2. 96-well COSTAR UV microplates for assay (COSTAR cat.#3635) • 3. Bio-Spin 6 Chromatography Columns (BIO-RAD cat.#732-6002) • 4. 12-75 mm test tubes • 5. Falcon 50 ml tubes • 6. Falcon 14 ml tubes • 7. 1.5 ml eppendorf tube • 8. ≧10 ml buffer reservoir Reagents: • 1. Enzyme: Cathepsin H, M.W.28,000, 9.07 μM stock. • 2. Substrate:H-Arg-pNA, M.W. 367.2, prep. 50 mM [18.36 mg/ml] stock. • 3. Buffer: [100 mM NaP04, 1 mM EDTA, 1 mM DTT, pH 6.5 Instrument Settings: SpectraMax Plus • 1. Kinetic assay reading@410 nM • 2. Read interval: 30 seconds • 3. Time: 1 hour • 4. OD Min: −0.001 • 5. OD Max: 0.05 • 6. Data Mode: Absorbance • 7. e410=188.415 μM/O.D. Km=108±5 μM Procedure: • 1. Prep. substrate: 50 mM (18.36 mg/ml) stock in 100% DMSO. • 2. Add 73 μl of buffer to all wells. • 3. Add 7 μl of sample to appropriate wells: a.) 100% DMSO for (+E) & (−E) controls. • 4. Add 100 μl of buffer to (−E) controls. • 5. Dilute substrate (1:20) in buffer; Add 140 μl to 2.66 ml buffer while vortexing. [2.5 mM] final. • 6. Add 20 μl of substrate to all wells. Vortex 3-5 seconds. [250 μM] final. • 7. Dilute enzyme (1:64.8) in buffer; Add 179 μl to 11.418 ml buffer. 2× [140 nM] final. • 8. Add 100 μl of 2× [140 nM] enzyme to assigned wells, except (−E) controls. [70 nM] final. • 9. Read@410 nM every 30 seconds for 1 hour on SpectraMax Plus Cathepsin L: Materials: • 1. 96-well Round or V-bottom microplates for dilutions • 2. 96-well COSTAR UV microplates for assay (COSTAR cat.#3635) • 3. Falcon 50 ml tubes • 4. Falcon 14 ml tubes • 5. 1.5 ml eppendorf tube • 6. 10 ml buffer reservoir Reagents: • 1. Enzyme: Calbiochem #219402: Cathepsin L, M.W.29,000, 11.62 μM stock. Lot#B45683 • 2. Substrate: Bachem #L-1242: Z-Phe-Arg-pNA, M.W. 612.09, prep. 4.8 mM [2.938 mg/ml] stock in 100% DMSO. • 3. Buffer: [100 mM NaP04, 1 mM EDTA, pH 5.5] Supplement buffer w/1 mM DTT, day of assay. Experiment #1: • Instrument settings: SpectraMax Plus microtiter plate reader (Molecular Devices, Sunnydale, Calif.) • 1. Kinetic assay reading@410 nM • 2. Read interval: 30 seconds • 3. Time: 1 hour • 4. OD Min: −0.001 • 5. OD Max: 0.05 • 6. Data Mode: Absorbance • 7. ε410=161.311 μM/O.D. Km=56±8 μM Procedure: • 1. Add 88 μl of buffer to all wells. • 2. Add 7 μl of sample or 100% DMSO to appropriate wells. • 3. Add 100 μl of buffer to (−E) controls. • 5. Add 5 μ 4.8 mM] substrate to all wells. [120 μM] final. • 6. Vortex 3-5 seconds. • 7. Dilute enzyme (1:483.87) in buffer; Add 24.8 μl to 12,000 μl buffer. 2×[24 nM] final. • 8. […]

T1 sequence (P07711 114-288 limits assumed): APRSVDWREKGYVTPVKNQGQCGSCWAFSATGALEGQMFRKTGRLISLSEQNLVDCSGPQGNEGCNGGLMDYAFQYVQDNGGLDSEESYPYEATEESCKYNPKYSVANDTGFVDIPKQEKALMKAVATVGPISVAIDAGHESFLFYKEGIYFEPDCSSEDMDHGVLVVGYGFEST
T1 sequence (P07711 292-333 limits assumed): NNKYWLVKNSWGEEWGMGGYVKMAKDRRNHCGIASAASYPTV

Compound	pKi
CC1(C)C2CN(C(=O)[C@@H](NC(=O)NC3CCCCC3)C(C)(C)C)[C@H](C(=O)NC(CC3CCC3)C(=O)C(N)=O)C21 (some centres unmarked)	7.20
C=CCNC(=O)C(=O)C(CCC)NC(=O)[C@@H]1[C@@H]2[C@H](CN1C(=O)[C@@H](NC(=O)N[C@H](CN1CCCCC1=O)C(C)(C)C)C1Cc3ccccc3C1)C2(C)C (some centres unmarked)	6.85
CC(C)(C)[C@H](NC(=O)NC1(CS(=O)(=O)C(C)(C)C)CCCCC1)C(=O)N1C[C@H]2[C@@H]([C@H]1C(=O)N[C@@H](CCC1CC1)C(=O)C(=O)NC1CC1)C2(C)C [drawing 662]	7.60
CCCC(NC(=O)[C@H](CC(C)C)NC(=O)C(NC(=O)OC(C)(C)C)C(C)(C)C)C(=O)C(N)=O (some centres unmarked)	7.70
CCCC(NC(=O)[C@@H]1Cc2ccc3cc2CN1C(=O)[C@H](C1CCCCC1)NC(=O)CCCCCCO3)C(=O)C(N)=O (some centres unmarked)	7.10
CCCC[C@H](NC(=O)[C@@H]1[C@@H]2[C@H](CN1C(=O)[C@@H](NC(=O)NC1(CS(=O)(=O)C(C)C)CCCCC1)C(C)(C)C)C2(C)C)C(=O)C(=O)NC1CC1	7.42
CC(C)(C)[C@H](NC(=O)NC1(CS(=O)(=O)C(C)(C)C)CCCCC1)C(=O)N1C[C@H]2[C@@H]([C@H]1C(=O)N[C@@H](CCC1CC1)C(=O)C(=O)NC1CC1)C2(C)C [drawing 671]	7.33
CCCC[C@H](NC(=O)[C@@H]1[C@@H]2[C@H](CN1C(=O)[C@@H](NC(=O)NC1(CS(=O)(=O)C(C)(C)C)CCCCC1)C(C)(C)C)C2(C)C)C(=O)C(=O)NC1CC1 [drawing 667]	7.40
CCCC[C@H](NC(=O)[C@@H]1[C@@H]2[C@H](CN1C(=O)[C@@H](NC(=O)NC1([C@H]3CCCS3(=O)=O)CCCCC1)C(C)(C)C)C2(C)C)C(=O)C(=O)NC1CC1	7.10
C=CCCC(NC(=O)[C@H]1C(C(=O)[C@@H](NC(=O)OC(C)(C)C)C2CCCCC2)C[C@@H]2C[C@@H]21)C(=O)C(=O)NCC=C (some centres unmarked)	5.82
CCCC[C@H](NC(=O)[C@@H]1[C@@H]2[C@H](CN1C(=O)[C@@H](NC(=O)NC1(CS(=O)(=O)C(C)(C)C)CCCCC1)C(C)(C)C)C2(C)C)C(=O)C(=O)NC1CC1 [drawing 652]	8.15
CCCC[C@H](NC(=O)[C@@H]1[C@@H]2[C@H](CN1C(=O)[C@@H](NC(=O)NC1([C@H]3CCCS3(=O)=O)CCCCC1)C1(C)CCCCC1)C2(C)C)C(=O)C(=O)NC1CC1	7.70
C=CCNC(=O)C(=O)C(CCC)NC(=O)[C@@H]1CCCN1C(=O)[C@@H](NC(=O)NC1(CS(C)(=O)=O)CCCCC1)C(C)(C)C (some centres unmarked)	6.13
CC(C)(C)NC(=O)N[C@H](C(=O)N1C[C@H]2[C@@H]([C@H]1C(=O)NC(CC1CCC1)C(=O)C(N)=O)C2(C)C)C(C)(C)C (some centres unmarked)	7.12
CCC[C@H](NC(=O)[C@@H]1[C@@H]2[C@H](CN1C(=O)[C@@H](NC(=O)NC1([C@H]3CCCS3(=O)=O)CCCCC1)C1(C)CCCCC1)C2(C)C)C(=O)C(=O)NC1CC1	7.51
CN(C)C(=O)c1nc(CNC(=O)C(=O)C(CC2CCC2)NC(=O)[C@@H]2[C@@H]3[C@H](CN2C(=O)[C@@H](NC(=O)NC(C)(C)C)C(C)(C)C)C3(C)C)sc1-c1ccccc1 (some centres unmarked)	6.72

Compound	pKi
CC1(C)CC(=O)N(C[C@@H](NC(=O)N[C@H]2CCCCCCCCC[C@@H](C(=O)C(=O)NC3CC3)NC(=O)[C@@H]3[C@@H]4[C@H](CN3C2=O)C4(C)C)C(C)(C)C)C(=O)C1	6.60
CCC1C[C@]1(NC(=O)[C@@H]1C[C@H](Oc2cc(-c3ccccc3)nc3cc(OC)ccc23)CN1C(=O)[C@@H](NC(=O)OC(C)(C)C)C(C)C)C(=O)O (some centres unmarked)	7.00
CCCNC(=O)C(=O)[C@@H]1CCCCCCCCC[C@H](NC(=O)NC2(CS(=O)(=O)C(C)(C)C)CCCCC2)C(=O)N2C[C@H]3[C@@H]([C@H]2C(=O)N1)C3(C)C	6.48
CC(C)C[C@@H](C(=O)NC(CC1CC1)C(=O)C(N)=O)C1CCCCCC[C@H](NC(=O)OC(C)(C)C)C1=O (some centres unmarked)	7.60
CN(C[C@@H](NC(=O)N[C@H](C(=O)N1C[C@H](OC(C)(C)C)C[C@H]1C(=O)NC(CC1CCC1)C(=O)C(N)=O)C1CCCCC1)C(C)(C)C)S(C)(=O)=O (some centres unmarked)	6.96
CCCC[C@H](NC(=O)[C@@H]1[C@@H]2[C@H](CN1C(=O)[C@@H](NC(=O)NC1(CS(=O)(=O)C(C)(C)C)CCCCC1)C1(C)CCCCC1)C2(C)C)C(=O)C(=O)NC1CC1	7.96
CCC[C@H](NC(=O)[C@@H]1[C@H]2CCC[C@H]2CN1C(=O)[C@@H](NC(=O)[C@@H](NC(=O)c1cnccn1)C1CCCCC1)C(C)(C)C)C(=O)C(=O)NC1CC1	6.98
C=CCNC(=O)C(=O)C(CC1CC1)NC(=O)[C@@H]1[C@H]2C(c3ccccc3)[C@H]2CN1C(=O)[C@@H](NC(=O)NC1(CS(=O)(=O)C(C)(C)C)CCCCC1)C(C)(C)C (some centres unmarked)	6.46
C=CCCC(NC(=O)[C@@H]1[C@H]2C[C@H]2CN1C(=O)[C@@H](NC(=O)OC(C)(C)C)C1CCCCC1)C(=O)C(=O)NCC(=O)N[C@H](C(=O)N(C)C)c1ccccc1 (stereo partly drawn) (Boc-[Chg][Pro(3S,4R-methano)][X3]G[Phg]-NMe2)	6.57
C=CCNC(=O)C(=O)[C@H](CCCC)NC(=O)[C@@H]1[C@@H]2[C@H](CN1C(=O)[C@@H](NC(=O)NC1([C@H]3CCCS3(=O)=O)CCCCC1)C(C)(C)C)C2(C)C [drawing 681]	6.85
C=CCNC(=O)C(=O)[C@@H]1CCCCCCCCC[C@H](NC(=O)N[C@H](CN(C)S(=O)(=O)N(C)C)C(C)(C)C)C(=O)N2C[C@H]3[C@@H]([C@H]2C(=O)N1)C3(C)C	6.43
CC(=O)N[C@@H](CC(C)C)C(=O)N[C@@H](CC(C)C)C(=O)N[C@H](C=O)CCCNC(=N)N [drawing 710]	8.32
C=CCNC(=O)C(=O)[C@@H]1CCCCCCCCC[C@H](NC(=O)NC2(CS(=O)(=O)C(C)(C)CC)CCCCC2)C(=O)N2C[C@H]3[C@@H]([C@H]2C(=O)N1)C3(C)C	6.64
CC(C)C[C@@H](C(=O)NC(CC1CCC1)C(=O)C(N)=O)N1CCCCCC[C@H](NC(=O)N[C@@H](C(=O)OC(C)C)C(C)(C)C)C1=O (some centres unmarked)	6.92
CN(C[C@@H](NC(=O)N[C@H](C(=O)N1C[C@H]2[C@@H]([C@H]1C(=O)N[C@@H](CC(F)F)C(=O)N[C@@H]1C[C@@H]1c1ccccc1)C2(C)C)C(C)(C)C)C(C)(C)C)S(C)(=O)=O	6.28
CC(=O)N[C@@H](CC(C)C)C(=O)N[C@@H](CC(C)C)C(=O)N[C@H](C=O)CCCNC(=N)N [drawing 687]	8.05
